≈ marks a conversion by molar mass, not a printed value.

The values below come from ChEMBL document CHEMBL1649220, “New variant of CTX-M-type extended-spectrum beta-lactamases, CTX-M-71, with a Gly238Cys substitution in a Klebsiella pneumoniae isolate from Bulgaria” (2009).

Common to all, as to type: functional
Assay [1] has as its system Klebsiella pneumoniae. As to the kind of experiment: Antimicrobial activity against Klebsiella pneumoniae AH24-270 expressing blaCTX-M-71 gene by agar dilution method. On the technique in general: Agar dilution tests growth on a series of plates holding different concentrations.
For assay [2], the system named is Escherichia coli. As to the kind of experiment: Antimicrobial activity against Escherichia coli K-12 transconjugant harboring blaCTX-M-71 gene by agar dilution method.
Assay [3] has as its system Escherichia coli. As to the kind of experiment: Antimicrobial activity against Escherichia coli K-12 by agar dilution method.
The test system of assay [4] is Escherichia coli. As to the kind of experiment: Antimicrobial activity against Escherichia coli DH5[alpha] harboring pBC-CTX-M-71 plasmid by agar dilution method.
The subject of assay [5] is Escherichia coli. As to the kind of experiment: Antimicrobial activity against Escherichia coli DH5[alpha] harboring pBC-CTX-M-15 plasmid by agar dilution method.
Assay [6] relates to Escherichia coli. As to the kind of experiment: Antimicrobial activity against Escherichia coli DH5[alpha] by agar dilution method.
For assay [7], the system named is Klebsiella pneumoniae. As to the kind of experiment: Antimicrobial activity against Klebsiella pneumoniae AH24-270 expressing blaCTX-M-71 gene by agar dilution method in presence of beta-lactamase inhibitor clavulanic acid.
Assay [8] has as its system Escherichia coli. The assay can be described thus: Antimicrobial activity against Escherichia coli K-12 transconjugant harboring blaCTX-M-71 gene by agar dilution method in presence of beta-lactamase inhibitor clavulanic acid.
Assay [9] deals with Escherichia coli. As to the kind of experiment: Antimicrobial activity against Escherichia coli K-12 by agar dilution method in presence of beta-lactamase inhibitor clavulanic acid.
Assay [10] deals with Escherichia coli. The assay can be described thus: Antimicrobial activity against Escherichia coli DH5alpha harboring pBC-CTX-M-71 plasmid by agar dilution method in presence of beta-lactamase inhibitor clavulanic acid. Conditions: DH5[alpha].
Assay [11] concerns Escherichia coli. The assay can be described thus: Antimicrobial activity against Escherichia coli DH5alpha harboring pBC-CTX-M-15 plasmid by agar dilution method in presence of beta-lactamase inhibitor clavulanic acid. Conditions: DH5[alpha].
In assay [12] the test system is Escherichia coli. The assay can be described thus: Antimicrobial activity against Escherichia coli DH5alpha by agar dilution method in presence of beta-lactamase inhibitor clavulanic acid. Conditions: DH5[alpha].
For assay [13], the system named is Klebsiella pneumoniae. The assay can be described thus: Antimicrobial activity against Klebsiella pneumoniae AH24-270 expressing blaCTX-M-71 gene by agar dilution method in presence of beta-lactamase inhibitor Tazobactam.
Assay [14] deals with Escherichia coli. As to the kind of experiment: Antimicrobial activity against Escherichia coli K-12 transconjugant harboring blaCTX-M-71 gene by agar dilution method in presence of beta-lactamase inhibitor Tazobactam.
The test system of assay [15] is Escherichia coli. The assay can be described thus: Antimicrobial activity against Escherichia coli K-12 by agar dilution method in presence of beta-lactamase inhibitor Tazobactam.
For assay [16], the system named is Escherichia coli. As to the kind of experiment: Antimicrobial activity against Escherichia coli DH5alpha harboring pBC-CTX-M-71 plasmid by agar dilution method in presence of beta-lactamase inhibitor Tazobactam. Conditions: DH5[alpha].
For assay [17], the system named is Escherichia coli. The assay can be described thus: Antimicrobial activity against Escherichia coli DH5alpha harboring pBC-CTX-M-15 plasmid by agar dilution method in presence of beta-lactamase inhibitor Tazobactam. Conditions: DH5[alpha].
For assay [18], the system named is Escherichia coli. As to the kind of experiment: Antimicrobial activity against Escherichia coli DH5alpha by agar dilution method in presence of beta-lactamase inhibitor Tazobactam. Conditions: DH5[alpha].

The MIC is the lowest concentration found to suppress growth. As to `CC1(C)S[C@@H]2[C@H](NC(=O)[C@H](N)c3ccc(O)cc3)C(=O)N2[C@H]1C(=O)O` [AMOXICILLIN], the MIC in the assay with Klebsiella pneumoniae [1] was above 512 µg/mL; against Escherichia coli [2], above 512 µg/mL; with Escherichia coli [3], 2 µg/mL (≈ 5.47 µM); in the assay with Escherichia coli [4], above 512 µg/mL; with Escherichia coli [5] it was above 512 µg/mL; against Escherichia coli [6] it was 4 µg/mL (≈ 10.9 µM). Also, the MIC was above 512 µg/mL with Klebsiella pneumoniae [7]; 64 µg/mL in the assay with Escherichia coli [8]; 2 µg/mL in the assay on Escherichia coli [9]; 8 µg/mL with Escherichia coli [10]; 8 µg/mL with Escherichia coli [11]; 2 µg/mL with Escherichia coli [12].
For `C[C@H]1[C@H](NC(=O)/C(=N\OC(C)(C)C(=O)O)c2csc(N)n2)C(=O)N1S(=O)(=O)O` [AZTREONAM], the MIC came out at 128 µg/mL (≈ 294 µM) against Klebsiella pneumoniae [1], 8 µg/mL (≈ 18.4 µM) against Escherichia coli [2], 8 µg/mL (≈ 18.4 µM) in the assay on Escherichia coli [4] and 64 µg/mL (≈ 147 µM) against Escherichia coli [5].
As to `CO/N=C(\C(=O)N[C@@H]1C(=O)N2C(C(=O)[O-])=C(C[N+]3(C)CCCC3)CS[C@H]12)c1csc(N)n1` [CEFEPIME], the MIC amounted to 128 µg/mL (≈ 266 µM) in the assay with Klebsiella pneumoniae [1]; 0.016 µg/mL (≈ 0.0333 µM) in the assay with Escherichia coli [3]; 4 µg/mL (≈ 8.32 µM) against Escherichia coli [4]; 16 µg/mL (≈ 33.3 µM) against Escherichia coli [5]; 0.016 µg/mL (≈ 0.0333 µM) with Escherichia coli [6].
Turning to `CO/N=C(\C(=O)N[C@@H]1C(=O)N2C(C(=O)O)=C(COC(C)=O)CS[C@H]12)c1csc(N)n1` [CEFOTAXIME], the MIC is 64 µg/mL (≈ 141 µM) against Klebsiella pneumoniae [1]; 4 µg/mL (≈ 8.78 µM) against Escherichia coli [2]; 0.03 µg/mL (≈ 0.0659 µM) in the assay with Escherichia coli [3]; 16 µg/mL (≈ 35.1 µM) against Escherichia coli [4]; above 256 µg/mL in the assay on Escherichia coli [5]; 0.03 µg/mL (≈ 0.0659 µM) with Escherichia coli [6]. Moreover, the MIC with Klebsiella pneumoniae [7] was 2 µg/mL; in the assay on Escherichia coli [8] it was 0.06 µg/mL; in the assay on Escherichia coli [9], 0.016 µg/mL; in the assay with Escherichia coli [10] it was 0.03 µg/mL; in the assay on Escherichia coli [11], 0.06 µg/mL; with Escherichia coli [12], 0.016 µg/mL.
Regarding `CO[C@@]1(NC(=O)Cc2cccs2)C(=O)N2C(C(=O)O)=C(COC(N)=O)CS[C@@H]21` [CEFOXITIN], the MIC is 64 µg/mL (≈ 150 µM) in the assay with Klebsiella pneumoniae [1]; 2 µg/mL (≈ 4.68 µM) in the assay with Escherichia coli [2]; 2 µg/mL (≈ 4.68 µM) in the assay on Escherichia coli [3]; 4 µg/mL (≈ 9.36 µM) in the assay on Escherichia coli [4]; 4 µg/mL (≈ 9.36 µM) with Escherichia coli [5]; 4 µg/mL (≈ 9.36 µM) against Escherichia coli [6].
For `CC(C)(O/N=C(\C(=O)N[C@@H]1C(=O)N2C(C(=O)[O-])=C(C[n+]3ccccc3)CS[C@H]12)c1csc(N)n1)C(=O)O` [CEFTAZIDIME], the minimal inhibitory concentration (MIC) with Klebsiella pneumoniae [1] was 16 µg/mL (≈ 29.3 µM); with Escherichia coli [2] it was 4 µg/mL (≈ 7.32 µM); against Escherichia coli [3], 0.06 µg/mL (≈ 0.11 µM); in the assay with Escherichia coli [4], 8 µg/mL (≈ 14.6 µM); in the assay on Escherichia coli [5], 64 µg/mL (≈ 117 µM); in the assay with Escherichia coli [6] it was 0.13 µg/mL (≈ 0.238 µM). In addition, the MIC with Klebsiella pneumoniae [7] stood at 4 µg/mL; with Escherichia coli [8], 0.25 µg/mL; in the assay with Escherichia coli [9], 0.06 µg/mL; in the assay on Escherichia coli [10], 0.25 µg/mL; in the assay with Escherichia coli [11], 0.25 µg/mL; in the assay on Escherichia coli [12] it was 0.06 µg/mL.
For the molecule `CO/N=C(\C(=O)N[C@@H]1C(=O)N2C(C(=O)O)=C(COC(N)=O)CS[C@H]12)c1ccco1` [CEFUROXIME], the minimum inhibitory concentration (MIC) with Klebsiella pneumoniae [1] is above 512 µg/mL; with Escherichia coli [2], 256 µg/mL (≈ 603 µM); against Escherichia coli [3], 2 µg/mL (≈ 4.71 µM); in the assay on Escherichia coli [4] it was 512 µg/mL (≈ 1210 µM); in the assay on Escherichia coli [5], above 512 µg/mL; in the assay on Escherichia coli [6] it was 4 µg/mL (≈ 9.43 µM).
Take `C[C@@H](O)[C@H]1C(=O)N2C(C(=O)O)=C(S[C@@H]3CN[C@H](C(=O)Nc4cccc(C(=O)O)c4)C3)[C@H](C)[C@H]12` [ERTAPENEM]: the MIC against Klebsiella pneumoniae [1] was 3 µg/mL (≈ 6.31 µM); against Escherichia coli [2], 0.016 µg/mL (≈ 0.0336 µM); in the assay with Escherichia coli [3] it was 0.008 µg/mL (≈ 0.0168 µM); in the assay with Escherichia coli [4], 0.016 µg/mL (≈ 0.0336 µM); against Escherichia coli [5], 0.03 µg/mL (≈ 0.0631 µM); in the assay with Escherichia coli [6] it was 0.016 µg/mL (≈ 0.0336 µM). Further, in the assay with Klebsiella pneumoniae [7], the MIC worked out at 8 µg/mL.
Consider `C[C@@H](O)[C@H]1C(=O)N2C(C(=O)O)=C([C@H]3CCCO3)S[C@H]12` [FAROPENEM], for which the MIC is 4 µg/mL (≈ 14 µM) with Klebsiella pneumoniae [1]; 1 µg/mL (≈ 3.5 µM) against Escherichia coli [2]; 0.5 µg/mL (≈ 1.75 µM) in the assay with Escherichia coli [3]; 0.5 µg/mL (≈ 1.75 µM) against Escherichia coli [4]; 1 µg/mL (≈ 3.5 µM) against Escherichia coli [5]; 0.5 µg/mL (≈ 1.75 µM) in the assay with Escherichia coli [6]. Moreover, the MIC in the assay on Klebsiella pneumoniae [7] came to 4 µg/mL; in the assay on Escherichia coli [8], 0.5 µg/mL; in the assay with Escherichia coli [9], 0.5 µg/mL; with Escherichia coli [10], 0.5 µg/mL; in the assay with Escherichia coli [11], 0.5 µg/mL; in the assay on Escherichia coli [12] it was 0.25 µg/mL.
In the case of `C[C@@H](O)[C@H]1C(=O)N2C(C(=O)O)=C(SCCNC=N)C[C@H]12` [IMIPENEM ANHYDROUS], the MIC amounted to 1 µg/mL (≈ 3.34 µM) against Klebsiella pneumoniae [1], 0.5 µg/mL with Klebsiella pneumoniae [7], 0.13 µg/mL with Escherichia coli [9] and 0.25 µg/mL with Escherichia coli [10].
Turning to `C[C@@H](O)[C@H]1C(=O)N2C(C(=O)O)=C(S[C@@H]3CN[C@H](C(=O)N(C)C)C3)[C@H](C)[C@H]12` [MEROPENEM], the MIC in the assay with Klebsiella pneumoniae [1] was found to be 4 µg/mL (≈ 10.4 µM); in the assay with Escherichia coli [2], 0.03 µg/mL (≈ 0.0782 µM); in the assay with Escherichia coli [3], 0.03 µg/mL (≈ 0.0782 µM); against Escherichia coli [4] it was 0.03 µg/mL (≈ 0.0782 µM); against Escherichia coli [5] it was 0.03 µg/mL (≈ 0.0782 µM); in the assay on Escherichia coli [6] it was 0.03 µg/mL (≈ 0.0782 µM). Further, the MIC with Klebsiella pneumoniae [7] came to 0.5 µg/mL; with Escherichia coli [8], 0.016 µg/mL; in the assay on Escherichia coli [9], 0.016 µg/mL; in the assay with Escherichia coli [10], 0.03 µg/mL; in the assay with Escherichia coli [11], 0.03 µg/mL; in the assay on Escherichia coli [12], 0.03 µg/mL.
Regarding `CCN1CCN(C(=O)N[C@@H](C(=O)N[C@@H]2C(=O)N3[C@@H]2SC(C)(C)[C@@H]3C(=O)O)c2ccccc2)C(=O)C1=O` [PIPERACILLIN], the MIC is above 256 µg/mL with Klebsiella pneumoniae [1]; above 256 µg/mL in the assay on Escherichia coli [2]; 1 µg/mL (≈ 1.93 µM) with Escherichia coli [3]; 256 µg/mL (≈ 495 µM) in the assay on Escherichia coli [4]; above 256 µg/mL against Escherichia coli [5]; 2 µg/mL (≈ 3.86 µM) with Escherichia coli [6]. Further, the MIC with Klebsiella pneumoniae [13] is above 256 µg/mL; with Escherichia coli [14], 16 µg/mL; in the assay with Escherichia coli [15] it was 1 µg/mL; in the assay with Escherichia coli [16], 2 µg/mL; in the assay on Escherichia coli [17] it was 2 µg/mL; with Escherichia coli [18], 1 µg/mL.
